The results in this text go back to patent publication US10238645B2 (priority 2009, dated 2019).

The structures appear in SMILES notation. Read-outs that look alike come from different tables or passages of the source. A value given as a limit tells only on which side of the number the result lay.

Series [1] in a line: Open label pharmacokinetic study GW01-0804: serum pharmacokinetics. The conditions noted are these: for Geometric LS Mean, Reference (trough serum concentration) / Geometric LS Mean, Test (trough serum concentration): Primary steady-state analysis.
Excerpt: Subjects stayed at the study center overnight during the treatment initiation visit (Day 1, first evening application) and the end-of-treatment visit (Day 21, last evening application). […] In addition, serum PK samples were collected in the evening prior to application on Days 7 and 14 to determine trough concentrations for steady-state analysis.
In addition, single blood draws for PK analysis of trough concentrations to determine steady state were obtained on Day 7 and Day 14 (in the evening prior to application). Blood samples could be obtained within ±5 minutes of the target sampling time.
Pharmacokinetic variables will be calculated from the serum concentration data using standard, non-compartmental methods.
Series [2] concerns rabbit left ventricular wedge preparation. Kind of series: Arterially perfused rabbit left ventricular wedge preparation (QT, QRS, Tp-e, arrhythmogenesis). On the procedure:
New Zealand White rabbits, either sex weighing 2.3-2.8 kg were anticoagulated with heparin and anesthetized with ketamine/xylazine (40-50 mg/0.5-1.0 mg, per kg, i.v.). The chest was opened via a left thoracotomy, and the heart was excised and placed in a cardioplegic solution consisting of cold (4° C.) normal Tyrode's solution. Transmural wedges with dimensions of approximately 1.5 cm wide and 2-3 cm long were dissected from the left ventricle as described before (Liu et al, Heart Rhythm 2006; 3:948-956). The tissue was cannulated via a small branch of the left anterior descending artery and perfused with cardioplegic solution. […] The ventricular wedge was allowed to equilibrate in the tissue bath until electrically stable for one hour. The preparations were stimulated at basic cycle lengths (BCL) of 1000 and 2000 ms using bipolar silver electrodes insulated except at the tips and applied to the endocardial surface.
The QT interval was defined as the time from the onset of the QRS to the point at which the final downslope of the T wave crosses the isoelectric line. Transmembrane action potential from the endocardium (Endo) was recorded for identification of EADs only when QT prolongation >30% via a customer-made amplifier. Transmural dispersion of repolarization (TDR) was defined as the interval between the end and the peak of T wave (Tp-e).
The ratio of Tp-e to QT was calculated. • (6) Arrhythmic phenomena, including spontaneous R-on-T ectopic beats and TdP, were recorded if they occurred. 3.5 To Estimate Relative TdP Risk
The relative TdP risk of each compound was estimated according in which the Tp-e/QT ratio and […] phenomena were emphasized.
Results were presented as mean±SEM. Statistical analysis was performed using the Student's t-test. A p<0.05 is considered as statistically significant when compared the values at control perfusion.

Series [3] in a line: Acute dermal toxicity study under occlusion. In kind it is in vivo, rabbits.
Series [4] is described as follows: Systemic embryofetal development study, oral. In kind it is in vivo. The conditions noted are these: rats. On the procedure: (§1) Note: The animal multiples of human exposure calculations were based on daily dose comparisons in this label.
Systemic embryofetal development studies were conducted in rats and rabbits.

Series [5] in a line: Systemic embryofetal development study, intravenous. In kind it is in vivo. Particulars: rabbits.
Excerpt: as §1

The conditions of series [6]: rats, oral. On the procedure:
A combined fertility and peri- and post-natal development study was conducted in rats.

Series [7] is described as follows: Oral (gavage) carcinogenicity study, 24 months. In kind it is in vivo. Particulars: Wistar rats, up to 6 mg/kg 2×/week females (50×MRHD), 4 mg/kg 2×/week males (40×MRHD), 3 mg/kg 7×/week (25×MRHD).
Series [8] can be described thus: 52-week dermal photo-carcinogenicity study. In kind it is in vivo. Particulars: hairless mice, imiquimod added to the vehicle cream. An excerpt: The enhancement of ultraviolet carcinogenicity is not necessarily dependent on phototoxic mechanisms. Therefore, patients should minimize or avoid natural or artificial sunlight exposure to the affected areas.
In a 52-week dermal photo-carcinogenicity study, the median time to onset of skin tumor formation was decreased in hairless mice following chronic topical dosing (3×/week; 40 weeks of treatment followed by 12 weeks of observation) with concurrent exposure to UV radiation (5 days per week) with vehicle alone.

Series [9] is described as follows: Genotoxicity tests (five in vitro, three in vivo). Particulars: five in vitro and three in vivo genotoxicity tests.
A short description of series [10]: Multiple oral imiquimod doses (overdosage). In kind it is in vivo, human. The conditions noted are these: multiple oral doses of >200 mg.
Series [11] in a line: Single dose (oral, intraperitoneal, subcutaneous, intravenous) and repeat dose toxicity studies. Particulars: for LD50: in vivo.

Molecule `CC(C)Cn1cnc2c(N)nc3ccccc3c21` [Imiquimod (R-837)] gave an AUC(0-inf) in series [1] (both, human, in vivo) of 5.35 ng·h/mL. In addition, the AUC(0-t) worked out at 3.75 ng·h/mL in series [1] (both, human, in vivo, AUC0-24, Mean, serum, Day 1); 6.79 ng·h/mL in [1] (both, human, in vivo, AUC0-24, Mean, serum, Day 21); 3.12 ng·h/mL in series [1] (both, human, in vivo, AUC0-t, Mean, serum, Day 1). Moreover, the half-life in series [1] (both, human, in vivo, T1/2, Mean, serum, Day 1) is 12.4 h; in series [1] (both, human, in vivo, T1/2, Mean, serum, Day 21) it was 24.1 h; in [1] (both, human, in vivo, T1/2 EFF, Mean, serum, Day 21) it was 31.3 h. In addition, the “λz, Mean” value in series [1] (serum, Day 1) is 0.0756 h⁻¹; in series [1] (serum, Day 21), 0.0370 h⁻¹. Besides, the “λz EFF, Mean” value in series [1] (serum, Day 21) stood at 0.0380 h⁻¹.
For the molecule `COc1cc(N)c(Cl)cc1C(=O)NC1CCN(CCCOc2ccc(F)cc2)CC1OC` (stereo not shown) [cisapride], the “Effect on Tp-e interval” value in series [2] is reported as “marked concentration-dependent Tp-e prolongation”. Moreover, the “Equivocal EAD (preparations)” value in series [2] (both, New Zealand White, rabbit, 0.5 uM) is 1 of 4.
In the case of `CC(C)Cn1cnc2c(N)nc3ccccc3c21` [imiquimod, 1-(2-methylpropyl)-1H-imidazo[4,5-c]quinolin-4-amine], the 50% lethal dose (LD50) in [3] (Rabbit, Dermal) is over 5000 mg/kg; in [11] (monkey, iv, LD50, Monkey, intravenous bolus) it was over 6 mg/kg; in series [11] (monkey, iv, LD50, Monkey, intravenous infusion), about 8 mg/kg; in series [11] (monkey, po, LD50, Monkey), over 200 mg/kg; in [11] (mouse, ip, LD50, Mouse, Intraperitoneal), 879 mg/kg; in series [11] (mouse, po, LD50, Mouse), 403 mg/kg. In addition, the LD50 in series [11] (rat, ip, LD50, Rat, Intraperitoneal) was 763 mg/kg; in [11] (rat, po, LD50, Rat) it was 1660 mg/kg; in series [11] (rat, sc, LD50, Rat, Subcutaneous) it was about 20 mg/kg. Besides, the Acute dermal toxicity entry in series [3] (rabbits, under occlusion, 5000 mg/kg) is “did not reveal any toxic effects”. Besides, the QT increase in [2] (150 nM, BCL of 2000 ms, comparable to DMSO vehicle) came to 4%. Further, the Proarrhythmic events result in [2] (any preparation at any concentration) is given as “did not cause any proarrhythmic events”. Moreover, the “Effect on QT interval” value in [2] (concentration range tested) is reported as “does not have a significant effect”. The “Effect on Tp-e interval” value in [2] (concentration range tested) is “no significant effect”. For the same molecule, the “Effect on QRS duration” value in series [2] (imiquimod 0.5-150 nM, cisapride at 0.5 uM) is on record as “no significant effect”. Moreover, the “Embryofetal toxicity or teratogenicity” value in [4] (5 mg/kg/day (73×MRHD based on AUC)), in [5] (1 mg/kg/day (234×MRHD based on AUC)) and in [5] (2 mg/kg/day (2.1×MRHD based on BSA)) was “No treatment related effects” throughout. The Fetal effects result in [4] (20 mg/kg/day (375×MRHD based on AUC), in the presence of maternal toxicity) is on record as “increased resorptions, decreased fetal body weights, delays in skeletal ossification, bent limb bones”. Further, the Teratogenicity result in [6] (3 mg/kg/day (24×MRHD based on AUC)) was “No treatment related effects”. In addition, the “Finding in F1 fetuses” value in series [6] (6 mg/kg/day (50×MRHD), absence of maternal toxicity) is on record as “bent limb bones”. For the same molecule, in series [7], the “Tumors in oral carcinogenicity study” value is on record as “No treatment related tumors”. Further, the “Tumor development with UV radiation” value in series [8] was “No additional effect on tumor development beyond the vehicle effect”. In series [9], the “Mutagenic or clastogenic potential” value was “no evidence of mutagenic or clastogenic potential”. In addition, the “Most clinically serious adverse event” value in [10] was “hypotension”. The “Geometric LS Mean, Reference (trough serum concentration)” value amounted to 0.1543 in series [1] (Day 14 vs. Day 7, N 13); 0.1874 in [1] (Day 21 vs. Day 14, N 11); 0.1643 in series [1] (Day 22 vs. Day 21, N 12). Moreover, the “Geometric LS Mean, Test (trough serum concentration)” value in series [1] (Day 14 vs. Day 7, N 13) was determined as 0.1749; in [1] (Day 21 vs. Day 14, N 11), 0.1571; in [1] (Day 22 vs. Day 21, N 12), 0.1839. In series [1] (both, human, in vivo, Geometric LS Mean, Reference (trough serum concentration), Secondary steady-state analysis (BLQ replaced with LLOQ/2), Day 14 vs. Day 7, N 17), this molecule gave a concentration at 7 day (trough, evening prior to application) of 0.127 ng/mL. Further, the concentration at 14 day (trough, evening prior to application) in series [1] (both, human, in vivo, Geometric LS Mean, Reference (trough serum concentration), Secondary steady-state analysis (BLQ replaced with LLOQ/2), Day 21 vs. Day 14, N 15) came to 0.115 ng/mL; in series [1] (both, human, in vivo, Geometric LS Mean, Test (trough serum concentration), Secondary steady-state analysis (BLQ replaced with LLOQ/2), Day 14 vs. Day 7, N 17), 0.126 ng/mL. In series [1] (both, human, in vivo, Geometric LS Mean, Test (trough serum concentration), Secondary steady-state analysis (BLQ replaced with LLOQ/2), Day 22 vs. Day 21, N 15), the concentration at 22 day (trough, 24 h after the Day 21 application) is 0.156 ng/mL. In [11] (lower repeat doses (100 mg/kg or lower)), the “Signs of CNS toxicity” value is given as “did not occur”. For the same molecule, the Single dose toxicity result in [11] (oral, intraperitoneal, subcutaneous or intravenous, lethal doses) was “central nervous system (CNS) stimulation and convulsions”.
